Consider ten molecules from patent publication US5756527A, “Imidazole derivatives useful as modulators of multi drug resistances” (Ontogen Corporation, priority 1997, dated 1998).

Series [1] deals with CEM/VLB1000. Kind of series: Cytotoxicity potentiation (alamar blue) of vinblastine in multidrug-resistant cells. In kind it is cell-based. Conditions: midpoint of minimum and maximum cytotoxicity induced by 3-5 μg/mL vinblastine and compound, 48 h. The protocol:
Multidrug-resistant cell lines are easily obtainable for in vitro determination of drug sensitization by compounds of the present invention. In vitro potentiation of antineoplastic cytotoxicity by the imidazole derivatives of the present invention was measured in both CEM/VLB1000 and SK/VLB1000 cell lines. The multidrug resistant cell lines were obtained from Dr. Victor Ling, Ontario Cancer Institute, Toronto, Canada. The CEM/VLB 1000 cell line was maintained as a suspension in minimum essential medium supplemented with 10% fetal bovine serum in a humidied atmosphere of 95% air and 5% CO2 while the SK/VLB 1000 cell line was maintained as adherent cells using the identical medium conditions as the CEM cells. The CEM/VLB 1000 cells were seeded at a density of 5×10^4 cells/well in a 96 well microtiter plate while the SK/VLB 1000 cell line was seeded at a density of 2,500 cells/well after trypsinization. Vinblastine (5 μg/mL, for the CEM cells) or Taxol (3 μg/mL, for the SK cells) and compound (0.01 to 50 μM) were added directly to the wells. After an incubation of 48 hours in presence of drug, alamar blue (B. Page et al., Int. J. Oncol. 3: 473-476, 1993) was added (10 μL to the 200 μL cell suspension) for a period of 24 hours after which the fluorescence (excitation=530 nm, emission=590 nm) was read for each well using a "CytoFluor" microtiter fluorometer plate reader. This assay measures the effective concentration of compound necessary to enhance the cytotoxicity (EC50) of vinblastine in the MDR cell line.
^1 Values presented are the midpoint (EC50) of the minimum and
maximum cytotoxicity induced by 3-5 μg/mL vinblastine and the specific
compound of the present invention.

The test system of series [2] is CEM/VLB1000. Kind of series: [3H]-vinblastine (VLB) accumulation assay. It counts as cell-based. Conditions: midpoint of minimum and maximum increase in accumulation of 3H-vinblastine (275 nM), 3 hours at 37° C. As to the method: ^3 H-vinblastine accumulation was also measured in the CEM/VLB1000 cell line. Corning Easy-Wash 96 well plates were pretreated with PBS and 1% BSA for 60 minutes and then removed. CEM/VLB1000 cells were seeded at 2×10^5, 40 μL volume. Plates were incubated at 37° C. for 30-60 minutes prior to use. The reference reversing agent, verapamil, or the compound of the present invention was added to the well followed by addition of media containing ^3 H-vinblastine (final concentration=275nM). Plates were allowed to incubate for 3 hours at 37° C. Cells were harvested onto pretreated Wallace filtermats A (pretreated with 0.1% polyethyleneimine) using a TomTek harvester-96. After filtering, the filtermats were allowed to dry completely. Meltix B scintillant was then added to the filtermats. The filters were then placed in a 90° C. oven for approximately 3-5 minutes and then removed. Scintillant was allowed to solidify on the filtermats. Filtermats were then placed in sample bags and read on a Wallace BetaPlate scintillation counter. The effects of compounds of the present invention in the cytotoxicity potentiation assays and vinblastine (VLB) accumulation assay are given in the Table below:
^2 Values presented are the midpoint (EC50) of the minimum and
maximum increase in accumulation of ^3 Hvinblastine caused by the
specific compound of the present invention.

What is called EC50 is the concentration giving half of the maximal effect.

`COC(=O)/C=C/c1cc(-c2nc(-c3ccc(N(C)C)cc3)c(-c3ccc(N(C)C)cc3)[nH]2)ccc1F` [Example 58, 2-[4-fluoro-3-(trans-methylpropenoate)phenyl]-4,5-bis(4-N,N-dimethylaminophenyl) imidazole]: the results for the EC50 with CEM/VLB1000 [1] and in the series with CEM/VLB1000 [2] were 134 nM and 2000 nM, respectively.
On the same counts, the results for `CNc1ccc(-c2[nH]c(-c3ccc(F)c(/C=C/C(=O)OC)c3)nc2-c2ccc(N(C)C)cc2)cc1` [Example 59, 2-[4-fluoro-3-(trans-methylpropenoate)phenyl]-4-[(4-N,N-dimethylamino)phenyl]-5-[(4-N-methylamino)phenyl] imidazole] are 570 nM and 3200 nM.
With `COC(=O)/C=C/c1ccc(-c2nc(-c3ccc(N(C)C)cc3)c(-c3ccc(N(C)C)cc3)[nH]2)c(F)c1` [Example 60, 2-[2-fluoro-4-(trans-methylpropenoate)phenyl]-4,5-bis(4-N,N-dimethylaminophenyl) imidazole], the EC50 is 613 nM in the series on CEM/VLB1000 [1] and 3000 nM in the series with CEM/VLB1000 [2].
The matching figures for `COC(=O)/C=C/c1ccc(-c2nc(-c3ccc(N(C)C)cc3)c(-c3ccc(N(C)C)cc3)[nH]2)s1` [Example 61]: 217 nM and 1800 nM.
The matching figures for `COC(=O)/C=C/c1csc(-c2nc(-c3ccc(N(C)C)cc3)c(-c3ccc(N(C)C)cc3)[nH]2)c1` [Example 62, 2-[3-(trans-methylpropenoate)thienyl]-4,5-bis[(4-N,N-dimethylamino)phenyl] imidazole]: 320 nM and 3000 nM.
The matching figures for `COCCCc1ccc(-c2nc(-c3ccc(N(C)C)cc3)c(-c3ccc(N(C)C)cc3)[nH]2)cc1` [Example 63, 2-[4-(3-methoxypropyl)phenyl]-4,5-bis[(4-N,N-dimethylamino)phenyl] imidazole]: 205 nM and 1100 nM.
Take `COc1ccc(/C=C/C(=O)OC(C)C)cc1-c1nc(-c2ccc(N(C)C)cc2)c(-c2ccc(N(C)C)cc2)[nH]1` [Example 64, 2-[2-methoxy-5-(trans-i-propylpropenoate)phenyl]-4,5-bis(4-N,N-dimethylaminophenyl) imidazole]: the figures for the EC50 in the series with CEM/VLB1000 [1] and in the series on CEM/VLB1000 [2] were 390 nM and 6000 nM, respectively.
Consider `CC(C)OC(=O)/C=C/c1ccc(-c2nc(-c3ccc(N(C)C)cc3)c(-c3ccc(N(C)C)cc3)[nH]2)s1` [Example 65, 2-[3-(trans-i-propylpropenoate)thienyl]-4,5-bis[(4-N,N-dimethylamino)phenyl] imidazole], for which the EC50 with CEM/VLB1000 [1] came to 211 nM; in the series with CEM/VLB1000 [2] it was 4000 nM.
In the case of `CN(C)c1ccc(-c2nc(-c3ccc(/C=C/C(=O)OCc4ccccc4)cc3)[nH]c2-c2ccc(N(C)C)cc2)cc1` [Example 67, 2-[4-(trans-benzylpropenoate)phenyl]-4,5-bis[(4-N,N-dimethylamino)phenyl] imidazole], the half-maximal effective concentration (EC50) in the series with CEM/VLB1000 [1] is 330 nM; with CEM/VLB1000 [2] it was 10500 nM.
On the same counts, the results for `CN(C)c1ccc(-c2nc(-c3ccc(/C=C/C(=O)OCCc4ccccc4)cc3)[nH]c2-c2ccc(N(C)C)cc2)cc1` [Example 68, 2-[4-(trans-phenethylpropenoate)phenyl]-4,5-bis[(4-N,N-dimethylamino)phenyl] imidazole] are 1200 nM and greater than 30000 nM.
